Measured values taken from paper PMC8112869, “Therapeutic inhibition of keratinocyte TRPV3 sensory channel by local anesthetic dyclonine” (eLife, 2021).

Tests used:
[1] = target: T1, TRPV3 L630W (Mus musculus, UniProt Q8K424, L630W); assay: Whole-cell recording of TRPV3 mutant L630W in HEK 293T cells; format: cell-based; conditions: 2-APB (1 mM)-evoked, –60 mV, read-out: IC50 for inhibition of TRPV3 mutant
T1 construct: expressed in transfected cells; host or cells: HEK 293T
Source text: (§1) The WT mouse TRPV3 (mTRPV3), human TRPV3 (hTRPV3), rat TRPV1, rat TRPV2, rat TRPM8, and mouse TRPA1 cDNAs were generously provided by Dr. Feng Qin (State University of New York at Buffalo, Buffalo, USA). The GFP-mTRPV3 WT and the mutants (mTRPV3-G573S and mTRPV3-G573C) in pcDNA4/TO vector were gifts from Dr. Michael X Zhu (The University of Texas Health Science Center at Houston, Houston, USA). The WT fTRPV3 was kindly provided by Dr. Makoto Tominaga (Department of Physiological Sciences, SOKENDAI, Okazaki, Japan). All mutations were made using the overlap-extension polymerase chain reaction method as previously described ([Tian et al., 2019]). The resulting mutations were then verified by DNA sequencing. […]
(§2) Conventional whole-cell and excised patch-clamp recording methods were used. […] For a subset of recordings, currents were amplified using an Axopatch 200B amplifier (Molecular Devices, Sunnyvale, CA) and recorded through a BNC-2090/MIO acquisition system (National Instruments, Austin, TX) using QStudio developed by Dr. Feng Qin at State University of New York at Buffalo. […] As determined by the conductance tests, the solution around a patch under study was fully controlled by the application of a flow rate of 100 μl/min or greater. […]

[2] = target: T2, TRPV3 I659A (Mus musculus, UniProt Q8K424, I659A); assay: Whole-cell recording of TRPV3 mutant I659A in HEK 293T cells; format: cell-based; conditions: 2-APB (1 mM)-evoked, –60 mV, read-out: IC50 for inhibition of TRPV3 mutant
T2 construct: expressed in transfected cells; host or cells: HEK 293T
T2 sequence (Q8K424 whole entry I659A): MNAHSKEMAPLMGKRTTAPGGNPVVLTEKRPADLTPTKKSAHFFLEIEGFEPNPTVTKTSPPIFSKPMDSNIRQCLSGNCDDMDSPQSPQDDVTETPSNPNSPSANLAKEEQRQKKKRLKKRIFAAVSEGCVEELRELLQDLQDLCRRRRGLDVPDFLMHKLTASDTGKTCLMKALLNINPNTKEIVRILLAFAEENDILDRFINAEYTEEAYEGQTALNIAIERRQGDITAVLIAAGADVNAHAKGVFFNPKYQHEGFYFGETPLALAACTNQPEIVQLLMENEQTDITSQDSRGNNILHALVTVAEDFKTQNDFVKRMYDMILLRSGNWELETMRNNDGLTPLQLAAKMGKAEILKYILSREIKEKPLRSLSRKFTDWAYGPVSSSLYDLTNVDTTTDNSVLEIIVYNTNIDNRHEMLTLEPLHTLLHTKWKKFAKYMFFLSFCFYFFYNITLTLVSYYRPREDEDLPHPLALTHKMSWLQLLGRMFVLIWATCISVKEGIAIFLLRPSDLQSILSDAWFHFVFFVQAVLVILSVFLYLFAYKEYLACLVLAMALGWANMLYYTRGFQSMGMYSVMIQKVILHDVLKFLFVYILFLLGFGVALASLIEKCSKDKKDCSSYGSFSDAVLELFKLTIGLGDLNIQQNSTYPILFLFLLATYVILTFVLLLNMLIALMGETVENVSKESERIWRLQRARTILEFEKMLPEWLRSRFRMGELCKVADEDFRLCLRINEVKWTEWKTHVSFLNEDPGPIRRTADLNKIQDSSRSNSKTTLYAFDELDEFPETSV
Source text: as §1, §2

T1 sequence (Q8K424 whole entry L630W): as the sequence (Q8K424 whole entry I659A) above, with L630W, A659I counted along it

- IC50 [1]: 30.8 ± 2.2 µM
- IC50 [2]: 0.56 ± 0.06 µM
SMILES: CCCCOc1ccc(C(=O)CCN2CCCCC2)cc1 [dyclonine]
